The values below come from patent publication US20130267494A1, “1,4-OXAZEPANE DERIVATIVES” (priority 2010, published 2013).

Counter-ions that a name gives are not always drawn.

Assay type in all cases: cell-based
For test [1], the target named is T1, human serotonin transporter (Homo sapiens, UniProt P31645).
T1 construct: expressed in transfected cells
As to the kind of experiment: Inhibitory action on human serotonin transporter ([3H]-5-hydroxytryptamine uptake in CHO cells). The following applies: relative to inhibitory activity of 10 μM Paroxetine as 100%; for inhibition at 1 µM / inhibition at 10 µM: CHO, read-out: inhibitory rate (%). From the text:
(§1) Human serotonin transporter cDNA was amplified from human brain cDNA library by PCR, and inserted into pCRII-TOPO vector (manufactured by Invitrogen). The base sequence was confirmed and modified, and subcloned to pcDNA3.1 vector (manufactured by Invitrogen), whereby a human serotonin transporter expression plasmid was constructed. Human norepinephrine transporter cDNA was purchased from Invitrogen, and the base sequence was confirm and modified, and subcloned to pcDNA3.1 vector, whereby a human norepinephrine transporter expression plasmid was constructed.
(§2) The monoamine transporter expression plasmids thus prepared were introduced into CHO-K1 cells using FuGENE6 (manufactured by Roche Diagnostics) and according to the attached protocol, whereby each expressing cell was established.
CHO cells stably expressing a human serotonin transporter were used for the measurement of human serotonin transporter inhibitory activity. Unless particularly indicated, these CHO cells were cultured in a Ham/F12 medium (Invitrogen) containing 10% fetal bovine serum (MOREGATE).
The cultured cells that reached almost confluent were rinsed with PBS (Invitrogen), detached with Trypsin/EDTA (Invitrogen), and collected by a centrifugal operation. The obtained cells were counted, and diluted to 3×10^5 cells per 1 mL medium, the mixture was dispensed to a 96 well white plate (Corning) at 100 μL per well, and cultured overnight in a CO2 incubator.
(§3) Then, an assay buffer (126 mM NaCl, 4.95 mM KCl, 1.26 mM KH2PO4, 1.26 mM MgSO4, 10 mM HEPES, 2.32 mM CaCl2, 5.52 mM Glucose, 0.5% BSA) was prepared, the medium in the cell plate was removed and the assay buffer was added by 80 μL. A test compound was diluted with the assay buffer to a 10-fold concentration of the final concentration, and the mixture was dispensed to a 96 well polypropylene plate. The diluted test compound was dispensed to the cell plate by 10 μL. [3H]-5-Hydroxytryptamine (GE Healthcare) was diluted with the assay buffer to 200 nM, and the mixture was dispensed to the cell plate by 10 μL. At 20 min from [3H]-5-hydroxytryptamine addition, the assay buffer was removed by suction, and the plate was washed twice with 150 μL of PBS (Invitrogen) per well. Microscinti20 (PerkinElmer) was dispensed to each well by 100 μL, and the mixture was stirred for about 30 min. The radioactivity was measured by TopCount (PerkinElmer).
The inhibitory activity of each compound (10 μM) was calculated as a relative activity value based on the inhibitory activity of 10 μM Paroxetine (serotonin transporter inhibitor) as 100%.
In addition, the inhibitory activity of each compound (1 μM) was calculated as a relative activity value based on the inhibitory activity of 10 μM Paroxetine (serotonin transporter inhibitor) as 100%.

Test [2] addresses T2, human norepinephrine transporter (Homo sapiens, UniProt P23975).
T2 construct: expressed in transfected cells
As to the kind of experiment: Inhibitory action on human norepinephrine transporter ([3H]-norepinephrine uptake in CHO cells). The following applies: relative to inhibitory activity of 10 μM DMI as 100%; for inhibition at 1 µM / inhibition at 10 µM: CHO, read-out: inhibitory rate (%).
Description: as §1, §2
CHO cells stably expressing human norepinephrine transporter were used for the measurement of human norepinephrine transporter inhibitory activity. Unless otherwise indicated, these CHO cells were cultured in Ham/F12 medium (Invitrogen) containing 10% fetal bovine serum (MOREGATE).
The cultured cells that reached almost confluent were rinsed with PBS (Invitrogen), detached with Trypsin/EDTA (Invitrogen), and collected by a centrifugal operation. The obtained cells were counted, and diluted to 3×10^5 cells per 1 mL medium, and the mixture was dispensed to a 96 well white plate (Corning) at 100 μL per well, and cultured overnight in a CO2 incubator.
as §3, with “μL. [3H]-Norepinephrine” for “μL. [3H]-5-Hydroxytryptamine”, “At 45” for “At 20”, “from [3H]-norepinephrine” for “from [3H]-5-hydroxytryptamine”
The inhibitory activity of each compound (10 μM) was calculated as a relative activity value based on the inhibitory activity of 10 μM DMI (norepinephrine transporter inhibitor) as 100%.
The inhibitory activity of each compound (1 μM) was calculated as a relative activity value based on the inhibitory activity of 10 μM DMI (norepinephrine transporter inhibitor) as 100%.

Test [3] concerns the target T3, human dopamine transporter (Homo sapiens, UniProt Q01959).
T3 construct: expressed in transfected cells
As to the kind of experiment: Inhibitory action on human dopamine transporter ([3H]-dopamine uptake in CHO cells). The following applies: relative to inhibitory activity of 100 μM Nomifensine as 100%; for inhibition at 1 µM / inhibition at 10 µM: CHO, read-out: inhibitory rate (%).
Description: SRα promoter contained in pTB1411 described in JP-A-H5-076385 was cleaved with restriction enzyme […](manufactured by TAKARA BIO INC.), blunt-ended, further cleaved with restriction enzyme EcoRI (manufactured by TAKARA BIO INC.), and fragmented. On the other hand, pCI vector was cleaved with restriction enzyme BglII (manufactured by TAKARA BIO INC.), blunt-ended with T4 DNA polymerase, and further cleaved with restriction enzyme EcoRI (manufactured by TAKARA BIO INC.). Into this site was inserted an SRa promoter fragment to give pCI-SRa. Then, pCI-SRa was cleaved with restriction enzyme ClaI (manufactured by TAKARA BIO INC.) and blunt-ended. Into this site was inserted a 1.63 Kb fragment obtained by cleaving pGFP-C1 (manufactured by TOYOBO) with restriction enzyme Bsu36I (manufactured by Daiichi Pure Chemicals Co., Ltd.) followed by blunt-ending, whereby pMSRα neo was prepared. Human dopamine transporter cDNA was amplified from human substantia nigra cDNA library by PCR, and inserted into the pCRII vector (manufactured by Invitrogen). The base sequence was confirmed, modified and subcloned to pMSRα neo, whereby a human dopamine transporter expression plasmid was constructed.
as §2
CHO cells stably expressing human dopamine transporter were used for the measurement of human dopamine transporter inhibitory activity. Unless otherwise indicated, these CHO cells were cultured in Ham/F12 medium (Invitrogen) containing 10% fetal bovine serum (MOREGATE).
One day before the assay, the cultured cells that reached almost confluent were rinsed with PBS (Invitrogen), detached with Trypsin/EDTA (Invitrogen), and collected by a centrifugal operation. The obtained cells were counted, and diluted to 3×10^5 cells per 1 mL medium, and the mixture was dispensed to a 96 well white plate (Corning) at 100 μL per well, and cultured overnight in a CO2 incubator.
as §3, with “On the day of the test, an” for “Then, an”, “μL. [3H]-Dopamine” for “μL. [3H]-5-Hydroxytryptamine”, “nM, cold dopamine was diluted to 10 μM,” for “nM,”, “At 60” for “At 20”, “from [3H]-dopamine” for “from [3H]-5-hydroxytryptamine”
The inhibitory activity of each compound (10 μM) was calculated as a relative activity value based on the inhibitory activity of 100 μM Nomifensine (dopamine transporter inhibitor) as 100%.
The inhibitory activity of each compound (1 μM) was m calculated as a relative activity value based on the inhibitory activity of 100 μM Nomifensine (dopamine transporter inhibitor) as 100%.

Where [4] appears, read: compound 10 μM, CHO cells expressing human serotonin transporter.

T2 sequence (P23975 whole entry): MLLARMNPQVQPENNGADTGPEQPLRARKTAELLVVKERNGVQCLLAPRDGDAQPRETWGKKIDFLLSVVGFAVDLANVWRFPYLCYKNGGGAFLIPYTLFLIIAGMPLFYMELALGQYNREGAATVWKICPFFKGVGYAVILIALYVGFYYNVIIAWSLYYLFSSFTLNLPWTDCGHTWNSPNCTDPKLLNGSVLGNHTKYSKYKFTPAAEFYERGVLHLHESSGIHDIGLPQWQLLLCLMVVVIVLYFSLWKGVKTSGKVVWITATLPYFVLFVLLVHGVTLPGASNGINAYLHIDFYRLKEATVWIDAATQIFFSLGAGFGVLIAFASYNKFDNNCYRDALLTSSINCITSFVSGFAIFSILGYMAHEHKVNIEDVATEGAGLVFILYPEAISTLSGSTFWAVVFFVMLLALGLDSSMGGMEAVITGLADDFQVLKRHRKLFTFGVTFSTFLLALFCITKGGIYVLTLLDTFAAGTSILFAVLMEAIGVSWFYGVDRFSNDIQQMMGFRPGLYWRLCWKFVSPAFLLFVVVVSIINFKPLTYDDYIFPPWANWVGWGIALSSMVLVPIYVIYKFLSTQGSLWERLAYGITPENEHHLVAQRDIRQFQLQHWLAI
T3 sequence (Q01959 whole entry): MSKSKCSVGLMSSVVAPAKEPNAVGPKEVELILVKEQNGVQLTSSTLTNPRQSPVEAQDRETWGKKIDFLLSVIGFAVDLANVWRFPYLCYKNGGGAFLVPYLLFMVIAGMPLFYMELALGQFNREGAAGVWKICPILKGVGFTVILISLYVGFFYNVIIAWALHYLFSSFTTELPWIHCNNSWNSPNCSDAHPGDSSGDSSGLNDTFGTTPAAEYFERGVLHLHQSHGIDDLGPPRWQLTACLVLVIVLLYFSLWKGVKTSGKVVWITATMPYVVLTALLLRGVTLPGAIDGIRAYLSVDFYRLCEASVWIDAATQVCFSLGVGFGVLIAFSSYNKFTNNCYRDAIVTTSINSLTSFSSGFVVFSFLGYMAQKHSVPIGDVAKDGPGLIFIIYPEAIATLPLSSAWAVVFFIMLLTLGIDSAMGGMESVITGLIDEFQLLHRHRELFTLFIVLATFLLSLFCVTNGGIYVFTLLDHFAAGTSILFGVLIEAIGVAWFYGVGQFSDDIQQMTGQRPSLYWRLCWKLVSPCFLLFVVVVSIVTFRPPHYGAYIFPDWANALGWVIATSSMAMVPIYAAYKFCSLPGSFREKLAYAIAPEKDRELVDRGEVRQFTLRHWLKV
T1 sequence (P31645 whole entry): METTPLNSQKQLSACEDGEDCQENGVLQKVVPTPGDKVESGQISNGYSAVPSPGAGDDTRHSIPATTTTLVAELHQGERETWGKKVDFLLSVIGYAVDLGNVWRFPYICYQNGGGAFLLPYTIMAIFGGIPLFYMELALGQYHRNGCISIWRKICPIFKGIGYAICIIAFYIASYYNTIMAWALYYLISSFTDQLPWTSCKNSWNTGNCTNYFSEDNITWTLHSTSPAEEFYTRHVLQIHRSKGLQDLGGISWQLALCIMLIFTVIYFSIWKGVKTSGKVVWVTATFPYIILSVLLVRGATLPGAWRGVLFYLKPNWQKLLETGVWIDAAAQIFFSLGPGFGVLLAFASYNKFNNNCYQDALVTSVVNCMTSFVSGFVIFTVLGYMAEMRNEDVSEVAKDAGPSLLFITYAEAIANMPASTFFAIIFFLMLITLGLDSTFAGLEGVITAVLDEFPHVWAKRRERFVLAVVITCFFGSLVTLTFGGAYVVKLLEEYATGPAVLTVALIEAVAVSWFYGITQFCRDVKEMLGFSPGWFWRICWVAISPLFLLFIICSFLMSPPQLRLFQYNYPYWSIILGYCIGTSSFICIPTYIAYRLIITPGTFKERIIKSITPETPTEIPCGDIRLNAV

Turning to `CS(=O)(=O)C[C@H]1CNCCOC1c1ccc(F)c(Cl)c1` (mixture of isomers) [Example 12, (6RS,7SR)-7-(3-chloro-4-fluorophenyl)-6-[(methylsulfonyl)methyl]-1,4-oxazepane monohydrochloride], the figures for the inhibition at 1 µM in test [1] (compound 1 μM), in test [2] (compound 1 μM) and in test [3] (compound 1 μM) were 87%, 97% and 39%, respectively. The inhibition at 10 µM in test [1] (setting [4]) came to 97%; in test [2] (compound 10 μM), 100%; in test [3] (compound 10 μM) it was 90%.

As to `OC[C@H]1NCCOC[C@@H]1c1ccc(Cl)c(Cl)c1` (racemic) [Example 14, [(5RS,6SR)-6-(3,4-dichlorophenyl)-1,4-oxazepan-5-yl]methanol monohydrochloride], the “inhibitory rate (%)” value in test [1] (compound 1 μM) is on record as 31%; in test [1] (setting [4]) it was 79%; in test [2] (compound 1 μM) it was 98%; in test [2] (compound 10 μM) it was 100%; in test [3] (compound 1 μM), 87%; in test [3] (compound 10 μM), 99%.

As for `COC1(c2ccc(Cl)c(Cl)c2)CNCCOC1` (racemic) [Example 17, (6RS)-6-(3,4-dichlorophenyl)-6-methoxy-1,4-oxazepane monohydrochloride], the values for the inhibition at 1 µM in test [1] (compound 1 μM), in test [2] (compound 1 μM) and in test [3] (compound 1 μM) were 70%, 75% and 19%, respectively. Moreover, the inhibition at 10 µM amounted to 96% in test [1] (setting [4]), 97% in test [2] (compound 10 μM) and 53% in test [3] (compound 10 μM).

For `NS(=O)(=O)NCC1(c2ccc(Cl)c(Cl)c2)CCNCCO1` (racemic) [Example 22, N-{[(7RS)-7-(3,4-dichlorophenyl)-1,4-oxazepan-7-yl]methyl}sulfamide monohydrochloride], the values for the inhibition at 1 µM in test [1] (compound 1 μM), in test [2] (compound 1 μM) and in test [3] (compound 1 μM) were 82%, 97% and 25%, respectively. In addition, the inhibition at 10 µM came out at 98% in test [1] (setting [4]), 99% in test [2] (compound 10 μM) and 63% in test [3] (compound 10 μM).

As to `CS(=O)(=O)NCC1(c2ccc(Cl)c(Cl)c2)CNCCCO1` (racemic) [Example 24, N-{[(2RS)-2-(3,4-dichlorophenyl)-1,4-oxazepan-2-yl]methyl}methanesulfonamide monohydrochloride], the figures for the inhibition at 1 µM in test [1] (compound 1 μM), in test [2] (compound 1 μM) and in test [3] (compound 1 μM) were 87%, 94% and 20%, respectively. Moreover, the inhibition at 10 µM was determined as 99% in test [1] (setting [4]), 99% in test [2] (compound 10 μM) and 50% in test [3] (compound 10 μM).

Turning to `OC[C@H]1OCCNC[C@H]1c1ccc(Cl)c(Cl)c1` (racemic) [Example 25, [(6RS,7SR)-6-(3,4-dichlorophenyl)-1,4-oxazepan-7-yl]methanol monohydrochloride], the inhibition at 1 µM in test [1] (compound 1 μM) worked out at 29%; in test [2] (compound 1 μM), 99%; in test [3] (compound 1 μM) it was 46%. The inhibition at 10 µM was found to be 65% in test [1] (setting [4]), 100% in test [2] (compound 10 μM) and 94% in test [3] (compound 10 μM).

As for `CS(=O)(=O)C[C@@H]1CNCCO[C@@H]1c1ccc(Cl)c(Cl)c1` (racemic) [Example 50, (6RS,7SR)-7-(3,4-dichlorophenyl)-6-[(methylsulfonyl)methyl]-1,4-oxazepane monohydrochloride], the inhibition at 1 µM in test [1] (compound 1 μM) was 100%; in test [2] (compound 1 μM) it was 98%; in test [3] (compound 1 μM), 64%.

Turning to `CCNC(=O)NC[C@@H]1CNCCO[C@@H]1c1ccc(Cl)c(Cl)c1` (racemic) [Example 52, 1-{[(6RS,7RS)-7-(3,4-dichlorophenyl)-1,4-oxazepan-6-yl]methyl}-3-ethylurea monohydrochloride], the inhibition at 1 µM came to 99% in test [1] (compound 1 μM), 97% in test [2] (compound 1 μM) and 29% in test [3] (compound 1 μM).
